Patent publication US9775859B2, “Methods and compositions for preventing and treating a disease related to glycan dysregulation” (Sinai Health System, priority 2005, dated 2017)
Several values for one entry are separate records, joined by “and”; a condition that tells them apart may be missing. Identical values can stand only once. Entries after “also recorded” stand apart in the source; their conditions may differ.

Experiments:
MGAT1 = target: T1, MGAT1 (Homo sapiens, UniProt P26572); settings: read-out: Km for UDP-GlcNAc; cited from earlier work
T1 sequence (P26572 1-445): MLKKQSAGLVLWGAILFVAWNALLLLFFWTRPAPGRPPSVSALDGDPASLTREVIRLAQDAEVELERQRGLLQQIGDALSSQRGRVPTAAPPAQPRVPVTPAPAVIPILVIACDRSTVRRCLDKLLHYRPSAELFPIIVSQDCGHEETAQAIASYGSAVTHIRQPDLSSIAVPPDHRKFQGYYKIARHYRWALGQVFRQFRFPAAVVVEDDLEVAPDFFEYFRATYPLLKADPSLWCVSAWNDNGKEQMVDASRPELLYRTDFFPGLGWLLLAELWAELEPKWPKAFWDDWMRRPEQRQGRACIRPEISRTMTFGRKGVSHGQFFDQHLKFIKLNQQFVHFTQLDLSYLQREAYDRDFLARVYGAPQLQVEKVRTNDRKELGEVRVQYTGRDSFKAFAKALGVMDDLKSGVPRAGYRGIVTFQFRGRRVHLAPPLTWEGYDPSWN

MGAT2 = target: T2, MGAT2 (Homo sapiens, UniProt Q10469); settings: read-out: Km for UDP-GlcNAc; cited from earlier work
T2 sequence (Q10469 1-447): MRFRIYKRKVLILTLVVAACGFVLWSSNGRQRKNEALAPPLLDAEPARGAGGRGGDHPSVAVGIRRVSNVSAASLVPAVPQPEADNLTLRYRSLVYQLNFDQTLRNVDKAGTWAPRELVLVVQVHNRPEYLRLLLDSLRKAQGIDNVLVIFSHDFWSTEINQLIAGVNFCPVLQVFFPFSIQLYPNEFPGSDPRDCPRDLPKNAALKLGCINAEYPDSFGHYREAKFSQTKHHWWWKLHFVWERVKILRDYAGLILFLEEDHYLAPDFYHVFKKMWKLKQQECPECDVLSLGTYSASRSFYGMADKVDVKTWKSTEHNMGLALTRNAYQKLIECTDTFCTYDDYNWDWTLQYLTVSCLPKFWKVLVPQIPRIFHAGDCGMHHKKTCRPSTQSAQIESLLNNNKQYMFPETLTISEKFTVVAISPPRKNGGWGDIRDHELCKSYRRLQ

MGAT4 = settings: read-out: Km for UDP-GlcNAc; cited from earlier work
MGAT5 enzyme = target: T3, MGAT5 enzyme (Homo sapiens, UniProt Q09328); settings: read-out: Km for UDP-GlcNAc; cited from earlier work
T3 sequence (Q09328 1-741): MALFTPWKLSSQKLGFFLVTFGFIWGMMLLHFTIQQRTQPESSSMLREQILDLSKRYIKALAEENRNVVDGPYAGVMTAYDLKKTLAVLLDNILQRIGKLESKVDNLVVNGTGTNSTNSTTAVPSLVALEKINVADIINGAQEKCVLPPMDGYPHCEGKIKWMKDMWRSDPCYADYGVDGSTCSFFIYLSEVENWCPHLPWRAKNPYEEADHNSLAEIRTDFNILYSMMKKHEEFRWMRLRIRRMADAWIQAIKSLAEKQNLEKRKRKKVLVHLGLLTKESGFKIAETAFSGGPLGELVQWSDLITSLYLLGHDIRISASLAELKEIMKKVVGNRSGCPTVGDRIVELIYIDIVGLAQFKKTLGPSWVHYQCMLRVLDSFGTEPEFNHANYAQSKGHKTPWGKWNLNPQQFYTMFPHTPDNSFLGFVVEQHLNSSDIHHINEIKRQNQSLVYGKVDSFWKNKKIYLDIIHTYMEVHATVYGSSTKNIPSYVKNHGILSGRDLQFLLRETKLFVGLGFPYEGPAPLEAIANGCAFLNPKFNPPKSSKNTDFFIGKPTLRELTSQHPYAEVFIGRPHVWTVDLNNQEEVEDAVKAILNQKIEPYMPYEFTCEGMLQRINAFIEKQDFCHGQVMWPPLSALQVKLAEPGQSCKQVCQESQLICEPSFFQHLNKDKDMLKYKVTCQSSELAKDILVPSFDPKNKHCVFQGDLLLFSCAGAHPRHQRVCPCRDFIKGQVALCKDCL

[1] = tested on: UDP-GlcNAc/UMP transporter; settings: UDP-GlcNAc/UMP transport, model parameter; cited from earlier work
[2] = tested on: PL/J and C57/B6 T cell cultures; assay: L-PHA staining of mouse CD3+ T cells stimulated with anti-CD3, FACS; format: cell-based; settings: listed as SW
Experimental: Mice used for L-PHA staining and quantitative RT-PCR were sex and age matched. […] 129/Sv mice were from an original Mgat5 gene targeted population (28). All other mice (SJL, NOD, Balb/c and B10.S) were obtained from Jackson Laboratories. […] Mouse and Jurkat cells were stained with L-PHA and LEA by first blocking with PBA (2% bovine serum albumin/0.01% azide/PBS) for 10 min at 4° C. and then incubated with 4 μg/ml of L-PHA-FITC (Vector Laboratories Inc.) or 20 μg/ml of LEA-FITC (Sigma) in PBA for 40 min at 4° C. and analyzed by a BD FACSCalihur (BD Pharmingen, San Diego, Calif.). The level of lectin binding was normalized by untreated control and calculated as a percentage (Sample intensity/control intensity-1) %.
Mice used for L-PHA staining and quantitative RT-PCR were sex and age matched. […] 129/Sv mice were from the original Mgat5 gene targeted population (28). All other mice (SJL, NOD, Balb/c and B10.S) were obtained from Jackson Laboratories. Mouse cells were stained with anti-CD4 (RM4-5), anti-CD8 (53-6.7), anti-CD45R (RA3-6B2) from eBioscience, and L-PHA (4 μg/ml) and LEA (20 μg/ml) from Sigma. […] The indicated monosaccharides and/or metabolites were added daily except glucose which was added only at time zero. […] The plateau or highest non-toxic dose is shown.

[3] = tested on: PL/J and C57/B6 T cell cultures; assay: CFSE proliferation of mouse CD3+ T cells stimulated with anti-CD3; format: cell-based; settings: wild type PL/J and C57/B6 T cells
CHO cells [4] = assay: L-PHA and ConA lectin staining of CHO cells by FACS; format: cell-based, Chinese Hamster; settings: CHO cells treated with inhibitor
Description: (§1) For comparison of N-glycan profiles of mice and human MS patients, CHO cells and CHO cells deficient at 5 different steps in the N-glycan pathway (Glucosidase I, Mannosidase I, MGAT1, Mannosidase II and MGAT5, FIG. 7A) were used to define relative L-PHA and Concanavillin A (ConA) lectin staining levels by FACS along with MALDI TOF N-glycan processing profiles. […] Indeed, a human infant with severe human glucosidase I deficiency accumulates Glc3Man (885 A ion in FIG. 16A, 21C) in the urine, a 4 hexose oligomer which derives from the Glucosidase I substrate Glc3Man9GlcNAc2 via endo-mannosidase activity (70). […] Such activity would produce Man8GlcNAc2, Man7GlcNAc2 and Man6GlcNAc2 structures and allow processing by Mannosidase I/II. Indeed, N-glycans of these 3 compositions accumulate in Glucosidase I/II inhibited cells when Mannosidase I activity is blocked with DMN (69). The larger structures Glc3Man9GlcNAc2 (mass 3008) and Glc3Man7GlcNAc2 (mass 2600) were also observed (67), however they were at lower relative intensities compared to the A ion group (FIG. 21C). […] Mixing CHO and Lec1 cells in various proportions confirmed that relative differences in expression of N-glycan structures can be determined using MALDI TOF (FIG. 21G).

CHO cells [5] = assay: MALDI-TOF mass spectroscopy N-glycan profile of CHO cells; format: cell-based, Chinese Hamster; settings: CHO cells treated with inhibitor
Experimental: This was done as a service at the Glycotechnology core facility, a resource of the Glycobiology Research and Training Center (GRTC) at the University of California, San Diego. CD3+ murine T cells (6×10^6), resting PBMCs from human controls and MS subjects (6×10^6) and CHO cells (10×10^6) were lysed with 1% SDS in 100 mM Tris pH 7.4, dialyzed to remove SDS, digested with trypsin to generate glycopeptides and treated with PNGaseF to release the N-glycans. To focus on early processing, N-glycans were desialylated by mild acid digestion prior to permethylation and MALDI-TOF mass spectroscopy. Monoisotopic peaks in the spectra were identified using GlycanMass and GlycoMod online software, with specific targeting of the N-glycan intermediates occurring during Golgi processing.
as §1

In the case of `CC(=O)N[C@H]1[C@@H](OP(=O)(O)OP(=O)(O)OC[C@H]2O[C@@H](n3ccc(=O)[nH]c3=O)[C@H](O)[C@@H]2O)O[C@H](CO)[C@@H](O)[C@@H]1O` [UDP-GlcNAc, UDP-N-acetylglucosamine], the Km (MGAT1) is given as 0.04 mM, the Km (MGAT2) is given as 0.9 mM and the Km (MGAT4) is given as roughly 5 mM. The Km (MGAT5 enzyme) was ~10 mM and ~11 mM and 11 mM and the Km [1] was 0.00713 mM.

With `O[C@H]1[C@H]2[C@H](O)CCCN2C[C@H]1O` [swainsonine] the “up-regulation of β1,6 GlcNAc branched N-glycans following stimulation” value ([2]; anti-CD3, minimal concentrations) was “significantly attenuated”, the “resting levels of β1,6 GlcNAc branched N-glycans” value ([2]; minimal concentrations) was “without affecting; also recorded: do not affect” and the “reversal of supplement effect on proliferation by blocking Mgat5 N-glycan expression” value [3] was “reversed”. The “high-mannose structures as seen by ConA staining” value (CHO cells [4]) was “increased”, the “β1,6GlcNAc-branched N-glycan expression by L-PHA staining” value (CHO cells [4]) was “dramatic reductions” and the “MALDI TOF profile of N-glycans (accumulated structures)” value (CHO cells [5]) was “accumulation of hybrid structures”. The “β1,6GlcNAc-branched tetra-antennary N-glycans (mass 2969, structure G)” value (CHO cells [5]) was “absent”.
